From patent publication US12527746B2, “Peptide/particle delivery systems” (The Johns Hopkins University, priority 2009, dated 2026)
Non-standard residues stand in square brackets, D forms with d. No end group written: not given here. Abu = CC[C@H](N)C(=O)O

How the values were obtained:
rho/VEGF (V6) mouse = assay: rho/VEGF (V6) mouse, genetic model of wet age-related macular degeneration; type: in vivo, mice; conditions: 8 weeks after injection
Excerpt: Referring now to FIG. 49 in shown the in vivo effects of microparticle formulations in both the CNV and rho/VEGF model over time. DEAH (SP6001)-336 PBAE nanoparticle formulation made as described previously (“DEAH” disclosed as SEQ ID NO: 2484). […] (Middle) and (Bottom) A genetic model of wet form of age-related macular degeneration in mice used to test long-term effect of microparticles. […] While PLGA is used to form the microparticles used above, other polymers may be used including the synthetic polyesters and polyamides described above. In certain embodiments, blends of these polymer are combined with PLGA to form microparticles with differing environmental sensitivity and release properties; (a) the effect of microparticle (SP-6001) in CNV model mouse; (b) the effect of microparticle (SP-6001) in rho/VEGF (V6) mouse, 1 week after injection; and (c) the effect of microparticle (SP-6001) in rho/VEGF (V6) mouse, 8 weeks after injection.

[1] = tested on: MDA-MB-231 tumor xenograft; assay: MDA-MB-231 breast cancer xenograft, orthotopic, i.p. peptide; set-up: species or system SCID mice; conditions: mouse, in vivo
Excerpt: BMC Cancer 2010; 10:29, and in a breast cancer xenograft model using MDA-MB-231 cells. Koskimaki J E, Karagiannis E D, Rosca E V, Vesuna F, Winnard P T, Jr., Raman V, et al. Peptides derived from type IV collagen, CXC chemokines, and thrombospondin-1 domain-containing proteins inhibit neovascularization and suppress tumor growth in MDA-MB-231 breast cancer xenografts. Neoplasia 2009; 11(12):1285-91.
Following orthotopic inoculation of SCID mice in the mammary fat pad area using 2×10^6 cells, tumors grew to approximately 100 mm^3 in 2 weeks; at that time 100 μL of peptide solution was injected i.p. once a day at peptide doses 10-20 mg/kg. PBS solution was injected as control. […] The microvessel density was determined by screening the immunohistologically stained CD31 sections. Inhibition of LEC migration in the ACEA migration assay also was determined (see FIG. 33B).

CNV laser mouse model = assay: CNV laser mouse model, intravitreous injection, choroidal flat mounts; type: in vivo, C57 BL/6 female mice; conditions: day 14
Excerpt: Referring now to FIG. 9 is shown in vivo 336 polymer nanoparticle/SP6001 DEAH peptide (“DEAH” disclosed as SEQ ID NO: 2484); Peptide-336 polymer nanoparticles were formulated as previously described and intravitreously injected to test in vivo efficacy. ACNV laser mouse model was used on C57 BL/6 female mice. The mice receive laser eye treatments on day zero, followed by the intravitreous injections. Mice are then perfused with fluorescein labeled dextran on day 14 and choroidal flat mounts (bottom) were analyzed via fluorescence microscopy.
Referring now to FIG. 49 in shown the in vivo effects of microparticle formulations in both the CNV and rho/VEGF model over time. DEAH (SP6001)-336 PBAE nanoparticle formulation made as described previously (“DEAH” disclosed as SEQ ID NO: 2484). […] (Middle) and (Bottom) A genetic model of wet form of age-related macular degeneration in mice used to test long-term effect of microparticles. […] While PLGA is used to form the microparticles used above, other polymers may be used including the synthetic polyesters and polyamides described above. […]

endothelial cells [2] = assay: Anti-proliferative and anti-migratory activity of free peptides on endothelial cells; type: cell-based
Excerpt: Several classes of peptides have been developed that show either anti-proliferative or anti-migratory activity or both on endothelial cells. These peptides appear to function through distinct mechanisms of action and have been tested both in vitro and in vivo in tumor xenografts and in ocular mouse models.
(§1) It is believed that this peptide is the first antilymphangiogenic peptide agent.

[3] = tested on: lymphatic endothelial cells; assay: Anti-proliferative and anti-migratory activity of free peptides on lymphatic endothelial cells; type: cell-based
Excerpt: as §1

endothelial cells [4] = assay: Endothelial cell proliferation, peptides encapsulated in polymeric particles vs free peptides; type: cell-based; conditions: encapsulated within polymeric particles compared to unencapsulated
Excerpt: Changes to polymer structure, including small changes to the ends of the polymer only, can vary biophysical properties of these particles. These properties can be important to tune for effective in vivo peptide delivery. A small subset of the potential polymer library was screened to measure the effect of encapsulating the antiangiogenic peptides chemokinostatin-1 and pentastatin-1 within polymeric particles compared to unencapsulated, free peptides. […] An example of representative polymers encapsulating peptides is provided in Scheme 5.

| Substance | anti-proliferative and anti-migratory activity (endothelial cells [2]) | inhibition of endothelial cell proliferation (endothelial cells [4]) | other results |
| --- | --- | --- | --- |
| EIELVEEEPPF [SP6001, 11-mer anti-angiogenic peptide derived from the serpin domain of DEAH box polypeptide] | – | – | inhibition of angiogenesis (rho/VEGF (V6) mouse): no longer inhibits angiogenesis; tumor xenograft growth [1]: significant inhibition; angiogenesis in the eye (CNV laser mouse model): significantly reduced angiogenesis |
| LLRISLLLIESWLE [SP5033] | anti-proliferative and anti-migratory activity | – | anti-proliferative and anti-migratory activity [3]: anti-proliferative and anti-migratory activity |
| LRRFSTMPFMF-Abu-NINNV-Abu-NF (LRRFSTMPFMF[Abu]NINNV[Abu]NF; listed as Homo sapiens) [SP2012] | highly potent anti-proliferative and anti-migratory | – | – |
| LRRFSTMPFMFCNINNVCNF [Pentastatin] | – | enhanced the ability of the peptides to inhibit the proliferation of endothelial cells | – |
| NGRKACLNPASPIVKKIIEKMLNS [Chemokinostatin] | – | enhanced the ability of the peptides to inhibit the proliferation of endothelial cells | – |
